Results on 1 substance are retold here after patent publication US20160060322A1, “RELAXIN-LIKE PEPTIDES AND USES THEREOF” (ANGION BIOMEDICA CORP., priority 2012, published 2016).

The test system of this experiment is HEK-293T cells. The experiment can be described thus: cAMP production in parental HEK-293T cells lacking RXFP1. Format: cell-based. Conditions: parental HEK-293T cells (lack RXFP1); H2R 10 ng/mL.

“H2R: ~6 kd peptide hormone, 24 amino acid A chain (SEQ ID NO:5) and 29 amino acid B chain (SEQ ID NO:6) linked by disulfide bridges (chain 1 ZLYSALANKCCHVGCTKRSLARFC; chain 2 DSWMEEVIKLCGRELVRAQIAICGMSTWS; disulfide bridges; listed as Homo sapiens)”: the “cAMP response in parental cells” value is reported as “no cAMP response”.
